Experimental data reported in patent publication US10981911B2, “Imidazopyrrolopyridine as inhibitors of the JAK family of kinases” (Janssen Pharmaceutica NV, priority 2016, dated 2021).

Tests used:
JAK2-JH1JH2 = JAK2-JH1JH2 (Homo sapiens (Human), UniProt O60674); experiment: Enzymatic inhibition assay (RapidFire HTMS), JAK2; format: biochemical; settings: 30 μM ATP, 40 μM substrate
In short: (§1)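 Quenched with 0.5% TFA plus internal-standard peptide; phosphorylated product quantified by RapidFire C4 SPE–ESI-MS, 11-point 1:3 or 1:4 dilutions in duplicate.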

JAK3-JH1JH2 = JAK3-JH1JH2 (Homo sapiens (Human), UniProt P52333); experiment: Enzymatic inhibition assay (RapidFire HTMS), JAK3; format: biochemical; settings: 150 μM ATP, 40 μM substrate
In short: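 Compounds tested in duplicate over 11-point 1:3 or 1:4 dilution series; no-enzyme wells as negative control. After 45 min at 25 °C, TFA quench with internal standard, and phosphorylated product quantified by RapidFire–QTrap mass spectrometry relative to the uninhibited reaction.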

JAK1-JH1JH2 = JAK1-JH1JH2 (Homo sapiens (Human), UniProt P23458); experiment: Enzymatic inhibition assay (RapidFire HTMS), JAK1; format: biochemical; settings: 12.5 μM ATP, 200 μM substrate; read-out: JAK1-JH2JH1 IC50
In short: as §1

[1] = In vivo intracolonic (i.c.) dosing: plasma and colon tissue concentrations (Protocol 3); parameters: species or system female C57BL/6 mice; settings: mice; for concentration at 4 h: colon, read-out: Colon Concentration After i.c. Dosing, Mean
From the text: Plasma and colon concentration results were obtained by following Protocol 1 using venipuncture of dorsal metatarsal vein bleed for Compounds (B), (C), and Examples 10 and 74. Plasma and colon concentration results were obtained by following Protocol 2 using retro-orbital bleed for Compounds (A), and Examples 1, and 3-5 and Protocol 2 using venipuncture of the dorsal metatarsal vein for Examples 2, 22, 34, 38, 55, and 85. Plasma and colon concentration results were obtained by following Protocol 3 for Examples 1, 3 and 4. These protocols are described below under the heading In vivo Studies.
Intracolonic (IC) dose group: Following anesthesia with isoflurane by inhalation, three non-fasted female C57BL/6 mice were administered the compound intracolonically through a small incision in the abdominal wall using a syringe and needle at a dose of 5 mg/kg as a solution in 20% HPβCD at a dose volume of 1 mL/kg. Blood samples were collected at 0.5, 2, and 4 h post dose via retro-orbital bleed. Blood samples were collected into tubes containing anticoagulant (Heparin-Na) and placed on wet ice. The plasma fraction was separated by centrifugation and frozen at −20° C. for up to 4 h and −80° C. after 4 h unless analyzed shortly after sample collection. Colon samples were collected at 4 h post dose. From 2 cm below the cecum, a 4-cm sample of the colon was dissected, cut open on the longitudinal axis, and the solid contents removed by flushing with 2 mL of saline. The colon was further washed by putting it in 5 mL of saline and shaken for 5 seconds. The colon sample was then patted dry, weighed, and homogenized as 1 part tissue (g) to 4 parts HPLC grade water (mL). Concentrations of the compound in plasma and colon homogenate were determined using a qualified liquid chromatography-triple quadrupole mass spectrometry (LC-MS/MS) method. This protocol was used to evaluate IC dosing of the following test compounds: Examples 1, 3, and 4.

[2] = female, C57BL/6, mouse, other: intracolonic (i.c.), 5 mg/kg i.c.
[3] = female, C57BL/6, mouse, plasma, other: intracolonic (i.c.), 5 mg/kg i.c., read-out: Plasma Concentration After i.c. Dosing, Mean

JAK1-JH1JH2, sequence (P23458 574-1154): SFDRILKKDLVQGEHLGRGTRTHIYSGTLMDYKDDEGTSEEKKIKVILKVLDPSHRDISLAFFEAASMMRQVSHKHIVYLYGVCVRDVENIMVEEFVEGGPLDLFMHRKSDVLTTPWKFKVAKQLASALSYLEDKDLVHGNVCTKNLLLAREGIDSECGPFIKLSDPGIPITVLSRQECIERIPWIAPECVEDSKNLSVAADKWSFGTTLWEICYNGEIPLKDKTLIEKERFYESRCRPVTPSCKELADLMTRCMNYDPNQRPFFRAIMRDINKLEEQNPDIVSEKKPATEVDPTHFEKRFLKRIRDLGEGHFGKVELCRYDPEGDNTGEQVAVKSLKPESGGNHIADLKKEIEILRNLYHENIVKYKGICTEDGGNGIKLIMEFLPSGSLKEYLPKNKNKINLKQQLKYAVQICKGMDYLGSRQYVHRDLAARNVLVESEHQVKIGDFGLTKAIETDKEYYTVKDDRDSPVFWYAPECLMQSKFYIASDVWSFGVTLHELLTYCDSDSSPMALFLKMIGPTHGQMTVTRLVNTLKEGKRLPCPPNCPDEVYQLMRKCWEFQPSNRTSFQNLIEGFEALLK
JAK3-JH1JH2, sequence (P52333 512-1124): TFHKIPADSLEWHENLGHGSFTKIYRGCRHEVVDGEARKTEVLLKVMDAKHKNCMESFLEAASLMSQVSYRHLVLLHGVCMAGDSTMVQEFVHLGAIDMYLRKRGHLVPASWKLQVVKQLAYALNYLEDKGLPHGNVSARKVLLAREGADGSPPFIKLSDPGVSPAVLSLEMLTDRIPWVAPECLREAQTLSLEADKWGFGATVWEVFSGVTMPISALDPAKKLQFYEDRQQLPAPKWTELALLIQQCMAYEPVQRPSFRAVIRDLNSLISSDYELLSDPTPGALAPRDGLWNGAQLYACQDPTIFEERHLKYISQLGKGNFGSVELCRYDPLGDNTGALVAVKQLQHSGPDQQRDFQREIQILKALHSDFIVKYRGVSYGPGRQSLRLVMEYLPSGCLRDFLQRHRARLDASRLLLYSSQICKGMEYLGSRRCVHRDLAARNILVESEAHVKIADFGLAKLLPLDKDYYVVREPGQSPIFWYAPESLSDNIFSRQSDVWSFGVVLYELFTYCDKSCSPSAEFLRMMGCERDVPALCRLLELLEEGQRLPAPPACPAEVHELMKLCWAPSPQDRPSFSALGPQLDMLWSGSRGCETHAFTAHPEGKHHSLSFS
JAK2-JH1JH2, sequence (O60674 532-1132): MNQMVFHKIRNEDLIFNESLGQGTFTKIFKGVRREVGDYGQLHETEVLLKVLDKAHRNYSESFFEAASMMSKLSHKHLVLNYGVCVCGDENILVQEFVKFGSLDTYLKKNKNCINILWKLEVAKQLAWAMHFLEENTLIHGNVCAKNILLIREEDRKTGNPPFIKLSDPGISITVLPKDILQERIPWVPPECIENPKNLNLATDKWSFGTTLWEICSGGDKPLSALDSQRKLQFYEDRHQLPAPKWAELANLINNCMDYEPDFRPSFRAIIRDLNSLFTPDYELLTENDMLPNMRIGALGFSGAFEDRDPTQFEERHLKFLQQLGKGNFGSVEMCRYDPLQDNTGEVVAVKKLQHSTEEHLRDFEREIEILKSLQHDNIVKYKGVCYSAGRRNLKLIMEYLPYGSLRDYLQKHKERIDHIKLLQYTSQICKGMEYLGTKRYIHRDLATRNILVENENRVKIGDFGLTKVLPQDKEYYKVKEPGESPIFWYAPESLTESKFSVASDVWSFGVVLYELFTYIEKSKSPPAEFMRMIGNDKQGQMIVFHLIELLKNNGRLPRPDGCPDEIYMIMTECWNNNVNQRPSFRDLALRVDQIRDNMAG

Row | Compound | IC50 (JAK2-JH1JH2) [nM] | IC50 (JAK3-JH1JH2) [nM] | IC50 (JAK1-JH1JH2) [nM] | concentration at 4 h [1, 2] [ng/g] | concentration at 0.5 h [1, 3] [ng/mL] | systemic exposures after i.c. dosing [1] | concentration at 2 h ([1]; female, C57BL/6, mouse, plasma, other: intracolonic (i.c.), 5 mg/kg i.c., Time = 2 h, read-out: Plasma Concentration After i.c. Dosing, Mean) [ng/mL]
1 | N#CCC12CCC(NC(=O)Cc3nc4cnc5[nH]ccc5c4n3[C@H]3CC[C@H](CC#N)CC3)(CC1)C2 [Ex. 55, N-(4-(Cyanomethyl)bicyclo[2.2.1]heptan-1-yl)-2-(1-((1r,4r)-4-(cyanomethyl)cyclohexyl)-1,6-dihydroimidazo[4,5-d]pyrrolo[2,3-b]pyridin-2-yl)acetamide] | 2.9 | 59.6 | 0.2 |  |  |  | 
2 | CC(C)(C#N)CNC(=O)Cc1nc2cnc3[nH]ccc3c2n1[C@H]1CC[C@H](CC#N)CC1 [Ex. 22, N-(2-Cyano-2-methylpropyl)-2-(1-((1r,4r)-4-(cyanomethyl)cyclohexyl)-1,6-dihydroimidazo[4,5-d]pyrrolo[2,3-b]pyridin-2-yl)acetamide] | 5.4 | 93.6 | 0.1 |  |  |  | 
3 | N#CC[C@H]1CC[C@H](n2c(CC(=O)NCC3(O)CC3)nc3cnc4[nH]ccc4c32)CC1 [Ex. 85, 2-(1-((1r,4r)-4-(Cyanomethyl)cyclohexyl)-1,6-dihydroimidazo[4,5-d]pyrrolo[2,3-b]pyridin-2-yl)-N-((1-hydroxycyclopropyl)methyl)acetamide] | 6.2 | 68.2 | 0.4 |  |  |  | 
4 | CC(C)(O)CNC(=O)Cc1nc2cnc3[nH]ccc3c2n1[C@H]1CC[C@H](CC#N)CC1 [Ex. 1, 2-(1-((1r,4r)-4-(Cyanomethyl)cyclohexyl)-1,6-dihydroimidazo[4,5-d]pyrrolo[2,3-b]pyridin-2-yl)-N-(2-hydroxy-2-methylpropyl)acetamide] | 8.2 | 87.8 | 0.3 | 681 | 2.5 | low systemic exposures | 
5 | N#CCCNC(=O)Cc1nc2cnc3[nH]ccc3c2n1[C@H]1CC[C@H](CC#N)CC1 [Ex. 4, N-(2-Cyanoethyl)-2-(1-((1r,4r)-4-(cyanomethyl)cyclohexyl)-1,6-dihydroimidazo[4,5-d]pyrrolo[2,3-b]pyridin-2-yl)acetamide] |  |  |  | 26.1 | 3.8 | low systemic exposures | 2.5
6 | N#CC[C@H]1CC[C@H](n2c(CC(=O)NCC3CC3)nc3cnc4[nH]ccc4c32)CC1 [Ex. 3, 2-(1-((1r,4r)-4-(Cyanomethyl)cyclohexyl)-1,6-dihydroimidazo[4,5-d]pyrrolo[2,3-b]pyridin-2-yl)-N-(cyclopropylmethyl)acetamide] |  |  |  | 228 | 1.5 | low systemic exposures | 
7 | N#CC[C@H]1CC[C@H](n2c(CC(=O)NCC3(O)CCC3)nc3cnc4[nH]ccc4c32)CC1 [Ex. 34, 2-(1-((1r,4r)-4-(Cyanomethyl)cyclohexyl)-1,6-dihydroimidazo[4,5-d]pyrrolo[2,3-b]pyridin-2-yl)-N-((1-hydroxycyclobutyl)methyl)acetamide] | 3.1 | 42.5 | 0.2 |  |  |  | 
